{"source": "patent US7723289B2", "about": "“PIF tetrapeptides” (BioIncept, LLC, priority 2003, dated 2010)", "key": {"β-3 integrin": {"test_system": "β-3 integrin", "assay": "β-3 integrin expression by human endometrial epithelial cells (flow cytometry, immunocytochemistry)", "format": "cell-based", "method": "Human endometrial tissues were digested and stromal and epithelial cells (hEEC) isolated and cultured with a fetal bovine serum (FBS)-enriched medium until confluent layers were obtained. After that the cells were cultured for two more days in a FBS free-medium followed by a further 2-day culture in the same medium containing PIF peptides (1-500 nM).\nIn addition, to compare the recovery of β-3 integrin expression with PIF effects described after cultured hEEC in a free-fetal bovine serum (FBS) medium some cells were cultured again in FBS-medium. […] PIF binding to epithelial cells was also examined. Binding was examined using MaBCD2 staining."}, "PBMC [1]": {"test_system": "PBMC", "details": "PHA +", "method": "sPIF-115 (SEQ ID NO:13) effect was tested on a patient with over 14 miscarriages and no live birth. Their immune cells were examined in the non-pregnant state, by exposure to sPIF-115 (SEQ ID NO:13) using PBMC preparations. Induction of PIF receptor expression, and binding to lymphocytes were used to characterize the treated cells."}, "CD3": {"test_system": "CD3", "assay": "CD3 expression in PBMC (flow cytometry, MAbCD3-PE)", "format": "cell-based", "details": "PBMC exposed 3 days, 2-200 nM", "method": "Fluorescent PIF peptides bind to immune cell membranes following activation. […] CD69 is expressed during activation of lymphocytes and monocytes, and is a marker of NK cells activation. CD25 is the receptor for IL-2, and a known activation marker as well. […] The expression of CD3 in PBMC was examined following exposure for 3 days to sPIF-1(15) (SEQ ID NO:13) (2-200 nM) using 20 ul MAbCD3-PE (BD)."}, "[2]": {"test_system": "THP1 a monocyte cell line", "details": "1-100 nM, no mitogen", "from_the_text": "The effect of PIF-1 was examined on THP1 a monocyte cell line (Dr Sharma Brown Univ)."}, "PBMC [3]": {"test_system": "PBMC", "assay": "Cytokine release (ELISA) and intracellular cytokine staining in stimulated PBMC", "format": "cell-based, human", "method": "FIG. 2. sPIF-1(15) (SEQ ID NO:13) increases the percentage of PBMC that contain TH2 type cytokines (IL10, IL 4), while scrPIF-1(15) (SEQ ID NO: 5) has a TH1 bias (INFgamma). Isolated PBMC were stimulated by PHA (1 ug/ml) and cultured 2-4 days with sPIF-1(15) (SEQ ID NO:13) or scrPIF-1(15) (SEQ ID NO:5). 30 nM. PBMC cytokines content was determined by specific staining using flow cytometry. Effect of PIF-1 on cellular content of cytokines of PBMC was examined up to 96 hours and a time dependent pattern emerged, not replicated by scrambled or irrelevant peptide. Measurements were carried out in two separate stages. At the cellular induction/synthetic level, lymphocytes were cultured in the presence of PHA for various periods with or without PIF-1 then processed for intracellular immunostaining (activation by PMA plus ionomycin in the presence of monenisn and berfeldin, followed by permeabilization and immunostaining) for the detection of nascent cytokines.\nHuman PBMC were isolated and cultured for 2-4 days in AIM-V medium containing 0 to 200 nM of sPIF-115 (SEQ ID NO:13) or scrPIF-115 (SEQ ID NO:5). The following proliferation-activating agents were used: anti-CD3 antibody (10 μg/ml solution) bound on the plate wells in the presence or absence of IL-2 at 10 μg/ml; phytohemmaglutinin (PHA) at 4 μg/ml. The effects of sPIF-115 (SEQ ID NO:13) or scrPIF-115 (SEQ ID NO:5) peptides were also determined by the mixed lymphocyte reaction (MLR) after 3 days in heterologous cultures of PBMC with cells previously treated with mitomycin C (100 μg/ml for 4 h). Cell proliferation was determined by tritiated thymidine incorporation (16 h) of 72-h culture. Cytokine release (IL-4, IL-10, IFN-γ and TNF-α) into culture supernatants was determined at 72 h of culture by ELISA (R&D System)."}}, "note": "Read-outs that look alike come from different tables or passages of the source.", "data": [{"sequence": "MVRIKPGSANKPSDD [sPIF-1(15)]", "values": [{"measurement": "increase in the expression of β-3-epithelial integrin", "setting": "β-3 integrin; hEEC, 2-day culture, 1-500 nM", "value": "up to a four-fold increase"}, {"measurement": "interaction with cultures of human endometrial stromal cells", "setting": "β-3 integrin; stromal cells", "value": "did not interact"}, {"measurement": "(PIF+/CD4+)/CD4+", "setting": "PBMC [1]; Control specimen", "value": 22.1}, {"measurement": "(PIF+/CD4+)/CD4+ difference in parentheses", "setting": "PBMC [1]; Control specimen", "value": 0, "unit": "%"}, {"measurement": "(PIF+/CD8+)/CD8+", "setting": "PBMC [1]; Control specimen", "value": 24.5}, {"measurement": "(PIF+/CD19+)/CD19+", "setting": "PBMC [1]; Control specimen", "value": 46.2}, {"measurement": "(PIF+/CD4+)/CD4+", "setting": "PBMC [1]; Patient specimen", "value": 16.2}, {"measurement": "(PIF+/CD8+)/CD8+", "setting": "PBMC [1]; Patient specimen", "value": 16.3}, {"measurement": "(PIF+/CD19+)/CD19+", "setting": "PBMC [1]; Patient specimen", "value": 48.2}, {"measurement": "(PIF+/CD4+)/CD4+ difference in parentheses", "setting": "PBMC [1]; Patient vs control", "value": "−27", "unit": "%"}, {"measurement": "(PIF+/CD8+)/CD8+ difference in parentheses", "setting": "PBMC [1]; Patient vs control", "value": "−33", "unit": "%"}, {"measurement": "increase in CD3 receptor expression", "setting": "CD3", "value": "215-420%"}, {"measurement": "IL10 secretion", "setting": "[2]", "value": "dose dependent increase"}, {"measurement": "percentage of PBMC that contain TH2 type cytokines (IL10, IL 4)", "setting": "PBMC [3]; PHA 1 ug/ml, 2-4 days, 30 nM, flow cytometry", "value": "increases"}, {"measurement": "IFN-γ decrease", "setting": "PBMC [3]; one day after IL-10 increase", "value": 30, "unit": "%"}, {"measurement": "increase in number of IL-10 secreting cells", "setting": "PBMC [3]; starting at day 2, peaking at days 3-4", "value": "50-60%"}, {"measurement": "increase of TH2/TH1 cytokine ratio in PBMC", "setting": "PBMC [3]; stimulated PBMC", "value": "more than five-fold"}, {"measurement": "IFN-γ release in culture supernatants", "setting": "PBMC [3]; stimulated PBMC, 72 h, ELISA", "value": "significantly decreased"}, {"measurement": "IL-4 release", "setting": "PBMC [3]; stimulated PBMC, 72 h, ELISA", "value": "does not have a significant effect"}, {"measurement": "IL-10 release in culture supernatants", "setting": "PBMC [3]; stimulated PBMC, 72 h, ELISA", "value": "significantly increased"}, {"measurement": "TNF-α release", "setting": "PBMC [3]; stimulated PBMC, 72 h, ELISA", "value": "does not have a significant effect"}]}]}
